Starred links: 1 amine or outer side, 2 acyl side, 3 side chain; linkers in the order of their positions; H or OH if unused. Positions of bridges follow the written chain, without caps; N, C: chain ends. Non-standard residues stand in square brackets, D forms with d. Residues, ends and D or L forms follow the SMILES beside them. *: point of attachment. X6 = O=C(O)CCCCCCCCCCCCCCCCC(=O)N[C@@H](CCC(=O)NCCCOCCOCCOCCCN*)C(=O)O; Trp(1-CH2COOH) = N[C@@H](Cc1cn(CC(=O)O)c2ccccc12)C(=O)O; X9 = O=C(O)CCCCCCCCCCCCCCCCC(=O)N[C@@H](CCN*)C(=O)O; Phe(3,4,5-F3) = N[C@@H](Cc1cc(F)c(F)c(F)c1)C(=O)O; Phe(4-F) = N[C@@H](Cc1ccc(F)cc1)C(=O)O; d(cisHyp) = O=C(O)[C@H]1C[C@@H](O)CN1; βAsp = O=C(O)[C@H](CC(=O)[*:2])N[*:1]; Hyp = O=C(O)[C@@H]1C[C@@H](O)CN1; NMeF = CN[C@@H](Cc1ccccc1)C(=O)O; dHyp = O=C(O)[C@H]1C[C@H](O)CN1; NMeNle = CCCC[C@H](NC)C(=O)O; Pip = O=C(O)[C@@H]1CCCCN1; NMeA = CN[C@@H](C)C(=O)O; Orn = NCCC[C@H](N)C(=O)O; Pra = C#CC[C@H](N)C(=O)O; Aun = NCCCCCCCCCCC(=O)O; Dab = NCC[C@H](N)C(=O)O; Dap = NC[C@H](N)C(=O)O; βAla = NCCC(=O)O
Target: T1, PD-L1 (Homo sapiens, UniProt Q9NZQ7)
T1 construct: hPDL1(19-239)-TVMV-His; made in house; host or cells: HEK293T
Assay: PD-1/PD-L1 Homogenous Time-Resolved Fluorescence (HTRF) binding assay (PD-1-Ig/PD-L1-His)
Conditions: inhibition of PD-1-Ig binding to PD-L1-TVMV-His; value given as range class; read-out: HTRF IC50
How it was run: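 Inhibitors pre-incubated 15 min with PD-L1-His (10 nM final), then PD-1-Ig (20 nM final) added for 15 min in dPBS/0.1% BSA/0.05% Tween-20. Eu-cryptate anti-Ig (1 nM) and APC anti-His (20 nM) added, 30 min equilibration, 665/620 nm HTRF ratio read.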

T1 sequence (Q9NZQ7 with tags, fused parts or gaps): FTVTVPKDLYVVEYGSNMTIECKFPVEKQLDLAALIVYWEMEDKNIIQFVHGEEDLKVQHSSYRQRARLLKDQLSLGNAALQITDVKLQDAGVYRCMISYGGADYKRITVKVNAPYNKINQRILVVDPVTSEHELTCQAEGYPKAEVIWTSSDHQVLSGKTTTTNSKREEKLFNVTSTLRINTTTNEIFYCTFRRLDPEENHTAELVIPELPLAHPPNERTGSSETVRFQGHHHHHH

Compound: CCCCCCCCCCCCCCCC(=O)N[C@@H](CCn1cc(C[C@H](NC(=O)CNC(=O)[C@@H]2CSCC(=O)N[C@@H](Cc3ccc(O)cc3)C(=O)N(C)[C@@H](C)C(=O)N[C@@H](CC(=O)O)C(=O)N3CCC[C@H]3C(=O)N[C@@H](Cc3c[nH]cn3)C(=O)N[C@@H](CCCCN)C(=O)N3C[C@H](O)C[C@H]3C(=O)N[C@@H](Cc3c[nH]c4ccccc34)C(=O)N[C@@H](CCCCN)C(=O)N[C@@H](Cc3c[nH]c4ccccc34)C(=O)N(C)[C@@H](CCCC)C(=O)N(C)[C@@H](CCCC)C(=O)N[C@@H](CCC(=O)O)C(=O)N2)C(=O)NCC(N)=O)nn1)C(=O)O [Example 14059]
- IC50: 10 to 99 nM

Compound: CCCC[C@H]1C(=O)N(C)[C@@H](CCCC)C(=O)N[C@@H](CCCNC(=N)N)C(=O)N[C@H](C(=O)NCC(=O)NCC(=O)N[C@@H](CC(=O)O)C(=O)NCCCCCCCCCCC(=O)O)CSCC(=O)N[C@@H](Cc2ccc(O)cc2)C(=O)N(C)[C@@H](C)C(=O)N[C@@H](CC(=O)O)C(=O)N2CCC[C@H]2C(=O)N[C@@H](Cc2cnc[nH]2)C(=O)N[C@@H](CC(C)C)C(=O)N2C[C@H](O)C[C@H]2C(=O)N[C@@H](Cc2c[nH]c3ccccc23)C(=O)N[C@@H](CO)C(=O)N[C@@H](Cc2c[nH]c3ccccc23)C(=O)N1C [Example 11069] ({CH2CO}-Y[NMeA]DPHL[Hyp]WSW[NMeNle][NMeNle]RCGGD[Aun]-OH; thioether N-14)
- IC50: 10 to 99 nM

Compound: CCCC[C@H]1C(=O)N(C)[C@@H](CCCC)C(=O)N[C@@H](CC(C)C)C(=O)N[C@H](C(=O)NCCCCCCCCCCC(=O)NCCCCCCCCCCC(=O)NCCCCCCCCCCC(=O)O)CSCC(=O)N[C@@H](Cc2ccc(O)cc2)C(=O)N(C)[C@@H](C)C(=O)N[C@@H](CC(N)=O)C(=O)N2CCC[C@H]2C(=O)N[C@@H](CN)C(=O)N[C@@H](CCC(N)=O)C(=O)N2C[C@H](O)C[C@H]2C(=O)N[C@@H](Cc2c[nH]c3ccccc23)C(=O)N[C@@H](CO)C(=O)N[C@@H](Cc2cn(CC(=O)O)c3ccccc23)C(=O)N1C [Example 11090] ({CH2CO}-Y[NMeA]NP[Dap]Q[Hyp]WS[Trp(1-CH2COOH)][NMeNle][NMeNle]LC[Aun][Aun][Aun]-OH; thioether N-14)
- IC50: 10 to 99 nM

Compound: CCCC[C@H]1C(=O)N(C)[C@@H](CCCC)C(=O)N[C@@H](CC(C)C)C(=O)N[C@H](C(=O)N[C@@H](CC(=O)O)C(=O)N[C@@H](CCC(=O)NCCCOCCOCCOCCCNC(=O)CC[C@H](NC(=O)CCCCCCCCCCCCCCCCC(=O)O)C(=O)O)C(=O)O)CSCC(=O)N[C@@H](Cc2ccc(O)cc2)C(=O)N(C)[C@@H](C)C(=O)N[C@@H](CC(N)=O)C(=O)N2CCC[C@@H]2C(=O)N[C@@H](CN)C(=O)N[C@@H](CC(C)C)C(=O)N2C[C@@H](O)C[C@@H]2C(=O)N[C@@H](Cc2c[nH]c3ccccc23)C(=O)N[C@@H](CCN)C(=O)N[C@@H](Cc2cn(CC(=O)O)c3ccccc23)C(=O)N1C [Example 11228] ({CH2CO}-Y[NMeA]N[dP][Dap]L[dHyp]W[Dab][Trp(1-CH2COOH)][NMeNle][NMeNle]LCDE(X6)-OH; thioether N-14)
- IC50: 10 to 99 nM

Compound: CCCC[C@H]1C(=O)N(C)[C@@H](CCCC)C(=O)N[C@@H](CCC(=O)O)C(=O)N[C@H](C(=O)NCC(=O)N[C@@H](Cc2cn(CCOCCOCCOCCOCCOCCOCCOCCOCCOCCOCCOCCNC(=O)CC[C@H](NC(=O)CCCCCCCCCCCCCCCCC(=O)O)C(=O)O)nn2)C(=O)O)CSCC(=O)N[C@@H](Cc2ccc(O)cc2)C(=O)N2CCCC[C@H]2C(=O)N[C@@H](CC(N)=O)C(=O)N2CCC[C@H]2C(=O)N[C@@H](CN)C(=O)N[C@@H](CC(C)C)C(=O)N2C[C@H](O)C[C@H]2C(=O)N[C@@H](Cc2c[nH]c3ccccc23)C(=O)N[C@@H](CCN)C(=O)N[C@@H](Cc2cn(CC(=O)O)c3ccccc23)C(=O)N1C [Example 14106]
- IC50: 100 to 1600 nM

Compound: C#CC[C@H](NC(=O)CNC(=O)[C@@H]1CSCC(=O)N[C@@H](Cc2cc(F)c(F)c(F)c2)C(=O)N(C)[C@@H](Cc2ccccc2)C(=O)N(C)[C@@H](CCCC)C(=O)N2CCC[C@@H]2C(=O)N[C@@H](CC(=O)O)C(=O)N[C@@H](C(C)C)C(=O)N(C)[C@@H](Cc2ccccc2)C(=O)N[C@@H](CCCN)C(=O)N2CCC[C@@H]2C(=O)N[C@@H](Cc2c[nH]c3ccccc23)C(=O)N[C@@H](Cc2ccc(O)cc2)C(=O)N[C@@H](CC(C)C)C(=O)N1)C(N)=O [INT 1400K, ClAc-F3Phe-mPhe-mNle-dPro-Asp-Val-mPhe-Orn-dPro-Trp-Tyr-Leu-Cys-Gly-[(S)-propargylglycine]] ({CH2CO}-[Phe(3,4,5-F3)][NMeF][NMeNle][dP]DV[NMeF][Orn][dP]WYLCG[Pra]-NH2; thioether N-13)
- IC50: 0.3 to 9.9 nM

Compound: C#CC[C@H](NC(=O)CNC(=O)[C@@H]1CSCC(=O)N[C@@H](Cc2ccc(O)cc2)C(=O)N(C)[C@@H](C)C(=O)N[C@@H](CC(=O)O)C(=O)N2CCC[C@H]2C(=O)N[C@@H](CN)C(=O)N[C@@H](CC(C)C)C(=O)N2C[C@H](O)C[C@H]2C(=O)N[C@@H](Cc2c[nH]c3ccccc23)C(=O)N[C@@H](CCN)C(=O)N[C@@H](Cc2cn(CC(=O)O)c3ccccc23)C(=O)N(C)[C@@H](CCCC)C(=O)N(C)[C@@H](CCCC)C(=O)N[C@@H](CCC(=O)O)C(=O)N1)C(=O)O [INT130AE] ({CH2CO}-Y[NMeA]DP[Dap]L[Hyp]W[Dab][Trp(1-CH2COOH)][NMeNle][NMeNle]ECG[Pra]-OH; thioether N-14)
- IC50: 10 to 99 nM

Compound: C#CC[C@H](NC(=O)CNC(=O)[C@@H]1CSCC(=O)N[C@@H](Cc2ccc(O)cc2)C(=O)N(C)[C@@H](C)C(=O)N[C@@H](CC(N)=O)C(=O)N2CCC[C@H]2C(=O)N[C@@H](CN)C(=O)N[C@@H](CC(C)C)C(=O)N2C[C@H](O)C[C@H]2C(=O)N[C@@H](Cc2c[nH]c3ccccc23)C(=O)N[C@@H](CCN)C(=O)N[C@@H](Cc2cn(CC(=O)O)c3ccccc23)C(=O)N(C)[C@@H](CCCC)C(=O)N(C)[C@@H](CCCC)C(=O)N[C@@H](CCC(=O)O)C(=O)N1)C(=O)O [INT130AD] ({CH2CO}-Y[NMeA]NP[Dap]L[Hyp]W[Dab][Trp(1-CH2COOH)][NMeNle][NMeNle]ECG[Pra]-OH; thioether N-14)
- IC50: 10 to 99 nM

Compound: CCCC[C@H]1C(=O)N(C)[C@@H](CCCC)C(=O)N[C@@H](CC(C)C)C(=O)N[C@H](C(=O)NCC(=O)N[C@@H](CC(=O)NCCC(=O)NCC[C@H](NC(=O)CCCCCCCCCCCCCCCCC(=O)O)C(=O)O)C(=O)O)CSCC(=O)N[C@@H](Cc2ccc(O)cc2)C(=O)N2CCCC[C@H]2C(=O)N[C@@H](CC(N)=O)C(=O)N2CCC[C@H]2C(=O)N[C@@H](CN)C(=O)N[C@@H](CC(C)C)C(=O)N2C[C@H](O)C[C@H]2C(=O)N[C@@H](Cc2c[nH]c3ccccc23)C(=O)N[C@@H](CCN)C(=O)N[C@@H](Cc2cn(CC(=O)O)c3ccccc23)C(=O)N1C [Example 13160] ({CH2CO}-Y[Pip]NP[Dap]L[Hyp]W[Dab][Trp(1-CH2COOH)][NMeNle][NMeNle]LCG[βAsp][βAla]-X9; thioether N-14)
- IC50: 0.3 to 9.9 nM

Compound: CCCC[C@H]1C(=O)N(C)[C@@H](CCCC)C(=O)N[C@@H](CC(C)C)C(=O)N[C@H](C(=O)NCC(=O)N[C@@H](CC(=O)NCC[C@H](NC(=O)CCCCCCCCCCCCCCCCC(=O)O)C(=O)O)C(=O)O)CSCC(=O)N[C@@H](Cc2ccc(F)cc2)C(=O)N2CCCC[C@H]2C(=O)N[C@@H](CC(=O)O)C(=O)N2CCC[C@H]2C(=O)N[C@@H](CN)C(=O)N[C@@H](CC(C)C)C(=O)N2C[C@H](O)C[C@H]2C(=O)N[C@@H](Cc2c[nH]c3ccccc23)C(=O)N[C@@H](CCN)C(=O)N[C@@H](Cc2cn(CC(=O)O)c3ccccc23)C(=O)N1C [Example 13147] ({CH2CO}-[Phe(4-F)][Pip]DP[Dap]L[Hyp]W[Dab][Trp(1-CH2COOH)][NMeNle][NMeNle]LCGD(X9)-OH; thioether N-14)
- IC50: 100 to 1600 nM

Compound: CCCC[C@H]1C(=O)N(C)[C@@H](CCCC)C(=O)N[C@@H](CC(C)C)C(=O)N[C@H](C(=O)NCC(=O)N[C@@H](CC(=O)NCCCOCCOCCOCCCNC(=O)CC[C@H](NC(=O)CCCCCCCCCCCCCCCCC(=O)O)C(=O)O)C(=O)O)CSCC(=O)N[C@@H](Cc2ccc(F)cc2)C(=O)N2CCCC[C@H]2C(=O)N[C@@H](CC(=O)O)C(=O)N2CCC[C@H]2C(=O)N[C@@H](CN)C(=O)N[C@@H](CCC(=O)O)C(=O)N2C[C@H](O)C[C@H]2C(=O)N[C@@H](Cc2c[nH]c3ccccc23)C(=O)N[C@@H](CCN)C(=O)N[C@@H](Cc2cn(CC(=O)O)c3ccccc23)C(=O)N1C [Example 11266] ({CH2CO}-[Phe(4-F)][Pip]DP[Dap]E[Hyp]W[Dab][Trp(1-CH2COOH)][NMeNle][NMeNle]LCGD(X6)-OH; thioether N-14)
- IC50: 0.3 to 9.9 nM

Compound: C#CC[C@H](NC(=O)CNC(=O)[C@@H]1CSCC(=O)N[C@@H](Cc2ccc(O)cc2)C(=O)N2CCCC[C@H]2C(=O)N[C@@H](CC(N)=O)C(=O)N2CCC[C@H]2C(=O)N[C@@H](CN)C(=O)N[C@@H](CC(C)C)C(=O)N2C[C@H](O)C[C@H]2C(=O)N[C@@H](Cc2c[nH]c3ccccc23)C(=O)N[C@@H](CCN)C(=O)N[C@@H](Cc2cn(CC(=O)O)c3ccccc23)C(=O)N(C)[C@@H](CCCC)C(=O)N(C)[C@@H](CCCC)C(=O)N[C@@H](CCC(=O)O)C(=O)N1)C(=O)O [INT130AJ] ({CH2CO}-Y[Pip]NP[Dap]L[Hyp]W[Dab][Trp(1-CH2COOH)][NMeNle][NMeNle]ECG[Pra]-OH; thioether N-14)
- IC50: 0.3 to 9.9 nM

Compound: C#CC[C@H](NC(=O)CNC(=O)[C@@H]1CSCC(=O)N[C@@H](Cc2cc(F)c(F)c(F)c2)C(=O)N(C)[C@@H](Cc2ccccc2)C(=O)N(C)[C@@H](CCCC)C(=O)N2C[C@H](O)C[C@@H]2C(=O)N[C@@H](CC(=O)O)C(=O)N[C@@H](C(C)C)C(=O)N(C)[C@@H](Cc2ccccc2)C(=O)N[C@@H](CC(=O)O)C(=O)N2CCC[C@@H]2C(=O)N[C@@H](Cc2c[nH]c3ccccc23)C(=O)N[C@@H](Cc2ccc(O)cc2)C(=O)N[C@@H](CC(C)C)C(=O)N1)C(N)=O [INT 1400L, ClAc-F3Phe-mPhe-mNle-dHyp-Asp-Val-mPhe-Asp-dPro-Trp-Tyr-Leu-Cys-Gly-[(S)-propargylglycine]] ({CH2CO}-[Phe(3,4,5-F3)][NMeF][NMeNle][d(cisHyp)]DV[NMeF]D[dP]WYLCG[Pra]-NH2; thioether N-13)
- IC50: 10 to 99 nM
